# Assay results: patent US7989428B2, “Combined telomerase inhibitor and gemcitabine for the treatment of cancer” (Geron Corporation, priority 2006, dated 2011)
# System: A549 tumor cells
# Test: A549 subcutaneous mouse xenograft model, GRN163L and/or gemcitabine
# Assay type: in vivo, mice
# Details: A549 s.c. xenograft, 60 days; gemcitabine 100 mg/kg IP, GRN163L 15 mg/kg IP
# Method: In one exemplary method, gemcitabine is administered in combination with a telomerase-inhibitor oligonucleotide targeted against hTR. […] Groups of 10 mice each were treated in accordance with one of three protocols: (1) Gemcitabine (100 mg/kg, IP) was administered 2 times/week for the first 1.5 weeks, then once weekly for the remainder of the study. […] (3) The two agents were administered together according to the individual-agent protocols.
smiles,measurement,value
"Cl.Nc1ccn([C@@H]2O[C@H](CO)[C@@H](O)C2(F)F)c(=O)n1 (single isomer, unassigned) [gemcitabine, 2′-deoxy-2′,2′-difluorocytidine monohydrochloride ((beta)-isomer)]",tumor growth during the treatment period,effective in preventing tumor growth
